These results are taken from PubChem BioAssay (NCI).

Some test systems named below: 786-0 renal; OVCAR-3 ovarian; CCRF-CEM leukemia; SF-268 CNS; UO-31 renal; HL-60(TB) leukemia; HOP-92 NSCLC; NCI/ADR-RES ovarian; SNB-19 CNS; MOLT-4 leukemia.
Common to all, as to experiment: NCI-60 cell line screen, 48 h

Structures are written as SMILES.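 Briefly, cells in 96-well plates were exposed to five compound concentrations for 48 h, and endpoints were estimated by linear interpolation. GI50 marks 50% less growth. TGI: concentration producing complete growth inhibition.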 Bounds are passed on as bounds.

Take `Fc1ccc(-c2nc(-c3nc4ccc(Cl)cc4[nH]3)cc3c2[nH]c2ccccc23)cc1`: the GI50 is 5.71 µM in the experiment on 786-0 renal; 2.74 µM in the experiment with OVCAR-3 ovarian; 3.37 µM in the experiment on CCRF-CEM leukemia; 3.66 µM in the experiment on SF-268 CNS; 2.4 µM with UO-31 renal; 4.32 µM with HL-60(TB) leukemia. The GI50 was 1.56 µM in the experiment with HOP-92 NSCLC, 3.42 µM in the experiment with NCI/ADR-RES ovarian, 4.27 µM with SNB-19 CNS and 2.48 µM with MOLT-4 leukemia. The TGI was 18.7 µM in the experiment on 786-0 renal; 6.87 µM in the experiment on OVCAR-3 ovarian; 20.3 µM in the experiment with CCRF-CEM leukemia; 17.7 µM in the experiment on SF-268 CNS; 10.7 µM with UO-31 renal; 17.8 µM in the experiment with HL-60(TB) leukemia. For the same compound, the TGI was 6.18 µM with HOP-92 NSCLC, 28.3 µM in the experiment with NCI/ADR-RES ovarian, over 100 µM with SNB-19 CNS and 8.37 µM with MOLT-4 leukemia.

For `COc1cc(CNC(=O)/C=C/C=C/c2ccc3c(c2)OCO3)ccc1OCc1cn(-c2ccc(Cl)c(Cl)c2)nn1`, the GI50 with 786-0 renal is 2.03 µM; with OVCAR-3 ovarian, 1.42 µM; in the experiment with CCRF-CEM leukemia, 1.44 µM; with SF-268 CNS, 2.3 µM; with UO-31 renal, 3.15 µM; in the experiment on HL-60(TB) leukemia, 2.08 µM. The GI50 was 1.48 µM with HOP-92 NSCLC, 1.42 µM in the experiment with NCI/ADR-RES ovarian, 2.5 µM in the experiment on SNB-19 CNS and 0.738 µM in the experiment with MOLT-4 leukemia. The TGI in the experiment with 786-0 renal stood at 4.28 µM; in the experiment with OVCAR-3 ovarian, 2.81 µM; with CCRF-CEM leukemia, 12.6 µM; in the experiment with SF-268 CNS it was 7.94 µM; with UO-31 renal it was 13.7 µM; in the experiment with HL-60(TB) leukemia, 5.73 µM. Moreover, the TGI with HOP-92 NSCLC turned out to be 3.39 µM; in the experiment on NCI/ADR-RES ovarian, 4.93 µM; in the experiment on SNB-19 CNS it was 12.4 µM; with MOLT-4 leukemia, 2.67 µM.

Turning to `CCCNc1nc(N(C)O)nc(N(C)O)n1`, the GI50 with 786-0 renal is 2.53 µM; in the experiment on OVCAR-3 ovarian it was 0.783 µM; with CCRF-CEM leukemia, 0.432 µM; in the experiment on SF-268 CNS, 1.39 µM; in the experiment with UO-31 renal it was 0.981 µM; with HL-60(TB) leukemia it was 0.59 µM. Also, the GI50 in the experiment with HOP-92 NSCLC was 4.75 µM; in the experiment with NCI/ADR-RES ovarian it was 2.15 µM; in the experiment on SNB-19 CNS it was 4.07 µM; with MOLT-4 leukemia it was 0.194 µM. The TGI is over 43.4 µM in the experiment with 786-0 renal; 9.23 µM in the experiment with OVCAR-3 ovarian; 5.46 µM in the experiment with CCRF-CEM leukemia; over 56.6 µM in the experiment on SF-268 CNS; over 40.8 µM in the experiment with UO-31 renal; 4.56 µM in the experiment with HL-60(TB) leukemia. For the same compound, the TGI is over 100 µM with HOP-92 NSCLC, over 100 µM with NCI/ADR-RES ovarian, over 100 µM in the experiment on SNB-19 CNS and over 28 µM with MOLT-4 leukemia.

Take `CCN1CCC[C@H]1c1cc(O)c2c(c1OC)C[C@H]1C[C@H]3[C@H](N)C(=O)C(C(N)=O)=C(O)[C@@]3(O)C(=O)C1=C2O`: the GI50 was 0.0504 µM in the experiment with 786-0 renal; 0.13 µM in the experiment with OVCAR-3 ovarian; 0.0634 µM in the experiment with CCRF-CEM leukemia; 0.0709 µM in the experiment on SF-268 CNS; 0.0528 µM with UO-31 renal; 0.0379 µM in the experiment on HL-60(TB) leukemia. Also, the GI50 with HOP-92 NSCLC was 0.0522 µM; in the experiment on NCI/ADR-RES ovarian it was 0.435 µM; in the experiment with SNB-19 CNS it was 0.113 µM; with MOLT-4 leukemia, 0.0587 µM. The TGI in the experiment with 786-0 renal was determined as 2.19 µM; with OVCAR-3 ovarian, 3.17 µM; with CCRF-CEM leukemia, 1.73 µM; with SF-268 CNS, 5.25 µM; in the experiment on UO-31 renal, 2.93 µM; in the experiment with HL-60(TB) leukemia, 0.238 µM. Moreover, the TGI in the experiment with HOP-92 NSCLC is 3.52 µM; in the experiment on NCI/ADR-RES ovarian, over 61.5 µM; in the experiment with SNB-19 CNS, 2.04 µM; with MOLT-4 leukemia it was 0.666 µM.

On to `Nc1ccc2c(c1)C(=O)c1ccc(F)cc1-2`, for which the TGI in the experiment on 786-0 renal, in the experiment with OVCAR-3 ovarian, with CCRF-CEM leukemia, in the experiment on SF-268 CNS, in the experiment on UO-31 renal and with HL-60(TB) leukemia was over 100 µM throughout. Also, the TGI with HOP-92 NSCLC, with NCI/ADR-RES ovarian, in the experiment on SNB-19 CNS and in the experiment with MOLT-4 leukemia was over 100 µM in each case.

`CN(C)CC(C(=O)c1ccccc1)c1ccccc1` (stereo not given): the GI50 in the experiment with 786-0 renal was 3.58 µM; with OVCAR-3 ovarian, 1.24 µM; in the experiment on CCRF-CEM leukemia it was 0.755 µM; with SF-268 CNS, 3.26 µM; with UO-31 renal, 1.49 µM; in the experiment on HL-60(TB) leukemia, 3.17 µM. Moreover, the GI50 in the experiment with HOP-92 NSCLC is 2.28 µM; with NCI/ADR-RES ovarian it was 2.59 µM; with SNB-19 CNS, 6.1 µM; in the experiment with MOLT-4 leukemia it was 4.2 µM. In addition, the TGI in the experiment with 786-0 renal was 10.4 µM; in the experiment on OVCAR-3 ovarian, 2.5 µM; with CCRF-CEM leukemia, 10.9 µM; in the experiment with SF-268 CNS, 10.8 µM; in the experiment on UO-31 renal it was 3.02 µM; in the experiment with HL-60(TB) leukemia, 8.22 µM. In addition, the TGI worked out at 9.54 µM in the experiment with HOP-92 NSCLC, 8.37 µM in the experiment on NCI/ADR-RES ovarian, 19.4 µM in the experiment with SNB-19 CNS and 31.3 µM in the experiment with MOLT-4 leukemia.
